Measurements reported in US20240269304A1, “BCL-XL INHIBITOR ANTIBODY-DRUG CONJUGATES AND METHODS OF USE THEREOF” (Novartis AG, priority 2020, published 2024).
pIC50: −log10 of the molar value. Like-named read-outs stand apart in the source and are kept apart here.

System: H1650 cells
Assay: CellTiterGlo (CTG) cell viability, 3D, 120 h, H1650 (Example 8)
Assay type: cell-based, human
Conditions: Homo sapiens, NCI-H1650, H1650 3D
Description: H1650 cells were cultivated in RPMI supplemented with 10% heat inactivated fetal bovine serum, penicillin (100 IU/ml), streptomycin (100 μg/ml) and L-glutamine (2 mM). Cell lines were cultured at 37° C. in a humidified atmosphere containing 5% 002. Cells were seeded in 96 microwell round bottom plates (96 microwell Low attachment plates , Costar reference 7007) and exposed to the payloads or ADCs for 120 h (serially diluted; 9 concentrations each, duplicates). Effects of payloads or ADCs on cell viability were assessed after 5 days of incubation at 37° C./5% CO2 by quantification of cellular ATP levels using CellTiterGlo at 75 μL reagent/well. All the conditions were tested in duplicates. Luminescence was quantified on a multipurpose plate reader. IC50S were calculated using standard four-parametric curve fitting. […] Each experiment was performed at least twice, with results being reproducible.

[1] = experiment n1, read-out: H1650 3D CTG IC50 n1
[2] = experiment n2, read-out: H1650 3D CTG IC50 n2
[3] = mean of n1 and n2, read-out: H1650 3D CTG IC50 Mean of n1 and n2

## COCCCNCCCC12CC3(C)CC(C)(C1)CC(Cn1ncc(-c4ccc(N5CCCc6c5nnc(Nc5nc7ccccc7s5)c6C)nc4C(=O)O)c1C)(C3)C2 [P51, 6-[3-(1,3-benzothiazol-2-ylamino)-4-methyl-6,7-dihydro-5H-pyrido[2,3-c]pyridazin-8-yl]-3-[1-[[3-[3-(3-methoxypropylamino)propyl]-5,7-dimethyl-1-adamantyl]methyl]-5-methyl-pyrazol-4-yl]pyridine-2-carboxylic acid]
[1]
  pIC50: 8.71
[2]
  pIC50: 8.55
[3]
  pIC50: 8.62

## Cc1c(Nc2nc3ccccc3s2)nnc2c1CCCN2c1ccc(-c2cnn(CC34CC5(C)CC(C)(CC(CCCN6CCCCCC6)(C5)C3)C4)c2C)c(C(=O)O)n1 [P52, 3-[1-[[3-[3-(azepan-1-yl)propyl]-5,7-dimethyl-1-adamantyl]methyl]-5-methyl-pyrazol-4-yl]-6-[3-(1,3-benzothiazol-2-ylamino)-4-methyl-6,7-dihydro-5H-pyrido[2,3-c]pyridazin-8-yl]pyridine-2-carboxylic acid]
[1]
  pIC50: 9.14
[2]
  pIC50: 9.42
[3]
  pIC50: 9.26

## Cc1c(Nc2nc3ccccc3s2)nnc2c1CCCN2c1ccc(-c2cnn(CC34CC5(C)CC(C)(CC(CCCNCC(=O)O)(C5)C3)C4)c2C)c(C(=O)O)n1 [P53, 6-[3-(1,3-benzothiazol-2-ylamino)-4-methyl-6,7-dihydro-5H-pyrido[2,3-c]pyridazin-8-yl]-3-[1-[[3-[3-(carboxymethylamino)propyl]-5,7-dimethyl-1-adamantyl]methyl]-5-methyl-pyrazol-4-yl]pyridine-2-carboxylic acid]
[1]
  pIC50: 7.42
[2]
  pIC50: 7.46
[3]
  pIC50: 7.44

## Cc1c(Nc2nc3ccccc3s2)nnc2c1CCCN2c1ccc(-c2cnn(CC34CC5(C)CC(C)(CC(CCCNCCC(=O)O)(C5)C3)C4)c2C)c(C(=O)O)n1 [P54, 6-[3-(1,3-benzothiazol-2-ylamino)-4-methyl-6,7-dihydro-5H-pyrido[2,3-c]pyridazin-8-yl]-3-[1-[[3-[3-(2-carboxyethylamino)propyl]-5,7-dimethyl-1-adamantyl]methyl]-5-methyl-pyrazol-4-yl]pyridine-2-carboxylic acid]
[1]
  pIC50: 7.97
[2]
  pIC50: 7.93
[3]
  pIC50: 7.95

## Cc1c(Nc2nc3ccccc3s2)nnc2c1CCCN2c1ccc(-c2cnn(CC34CC5(C)CC(C)(CC(CCCN(C)CC(=O)O)(C5)C3)C4)c2C)c(C(=O)O)n1 [P55, 6-[3-(1,3-benzothiazol-2-ylamino)-4-methyl-6,7-dihydro-5H-pyrido[2,3-c]pyridazin-8-yl]-3-[1-[[3-[3-[carboxymethyl(methyl)amino]propyl]-5,7-dimethyl-1-adamantyl]methyl]-5-methyl-pyrazol-4-yl]pyridine-2-carboxylic acid]
[1]
  pIC50: 8.21
[2]
  pIC50: 8.16
[3]
  pIC50: 8.19

## Cc1c(Nc2nc3ccccc3s2)nnc2c1CCCN2c1ccc(-c2cnn(CC34CC5(C)CC(C)(CC(CCCN(C)CCC(=O)O)(C5)C3)C4)c2C)c(C(=O)O)n1 [P56, 6-[3-(1,3-benzothiazol-2-ylamino)-4-methyl-6,7-dihydro-5H-pyrido[2,3-c]pyridazin-8-yl]-3-[1-[[3-[3-[2-carboxyethyl(methyl)amino]propyl]-5,7-dimethyl-1-adamantyl]methyl]-5-methyl-pyrazol-4-yl]pyridine-2-carboxylic acid]
[1]
  pIC50: 7.86
[2]
  pIC50: 8.53
[3]
  pIC50: 8.07

## Cc1c(Nc2nc3ccccc3s2)nnc2c1CCCN2c1ccc(-c2cnn(CC34CC5(C)CC(C)(C3)CC(OCCN(C)CCCC(=O)O)(C5)C4)c2C)c(C(=O)O)n1 [P57, 6-[3-(1,3-benzothiazol-2-ylamino)-4-methyl-6,7-dihydro-5H-pyrido[2,3-c]pyridazin-8-yl]-3-[1-[[3-[2-[3-carboxypropyl(methyl)amino]ethoxy]-5,7-dimethyl-1-adamantyl]methyl]-5-methyl-pyrazol-4-yl]pyridine-2-carboxylic acid]
[1]
  pIC50: 8.17
[2]
  pIC50: 7.84
[3]
  pIC50: 7.98

## Cc1c(Nc2nc3ccccc3s2)nnc2c1CCCN2c1ccc(-c2cnn(CC34CC5(C)CC(C)(CC(CCCN(C)CCCC(=O)O)(C5)C3)C4)c2C)c(C(=O)O)n1 [P58, 6-[3-(1,3-benzothiazol-2-ylamino)-4-methyl-6,7-dihydro-5H-pyrido[2,3-c]pyridazin-8-yl]-3-[1-[[3-[3-[3-carboxypropyl(methyl)amino]propyl]-5,7-dimethyl-1-adamantyl]methyl]-5-methyl-pyrazol-4-yl]pyridine-2-carboxylic acid]
[1]
  pIC50: 8.24
[2]
  pIC50: 8.04
[3]
  pIC50: 8.13

## Cc1c(Nc2nc3ccccc3s2)nnc2c1CCCN2c1ccc(-c2cnn(CC34CC5(C)CC(C)(C3)CC(OCCN(C)CCCO)(C5)C4)c2C)c(C(=O)O)n1 [P62, 6-[3-(1,3-benzothiazol-2-ylamino)-4-methyl-6,7-dihydro-5H-pyrido[2,3-c]pyridazin-8-yl]-3-[1-[[3-[2-[3-hydroxypropyl(methyl)amino]ethoxy]-5,7-dimethyl-1-adamantyl]methyl]-5-methyl-pyrazol-4-yl]pyridine-2-carboxylic acid]
[1]
  pIC50: 9.28
[3]
  pIC50: 9.28

## Cc1c(Nc2nc3cc(F)ccc3s2)nnc2c1CCCN2c1ccc(-c2cnn(CC34CC5(C)CC(C)(C3)CC(OCCN3CCCC3)(C5)C4)c2C)c(C(=O)O)n1 [P63, 3-[1-[[3,5-dimethyl-7-(2-pyrrolidin-1-ylethoxy)-1-adamantyl]methyl]-5-methyl-pyrazol-4-yl]-6-[3-[(5-fluoro-1,3-benzothiazol-2-yl)amino]-4-methyl-6,7-dihydro-5H-pyrido[2,3-c]pyridazin-8-yl]pyridine-2-carboxylic acid]
[1]
  pIC50: 8.43
[2]
  pIC50: 8.69
[3]
  pIC50: 8.54

## Cc1ccc2nc(Nc3nnc4c(c3C)CCCN4c3ccc(-c4cnn(CC56CC7(C)CC(C)(C5)CC(OCCN5CCCC5)(C7)C6)c4C)c(C(=O)O)n3)sc2c1 [P64, 3-[1-[[3,5-dimethyl-7-(2-pyrrolidin-1-ylethoxy)-1-adamantyl]methyl]-5-methyl-pyrazol-4-yl]-6-[4-methyl-3-[(6-methyl-1,3-benzothiazol-2-yl)amino]-6,7-dihydro-5H-pyrido[2,3-c]pyridazin-8-yl]pyridine-2-carboxylic acid]
[1]
  pIC50: 8.80
[2]
  pIC50: 8.54
[3]
  pIC50: 8.65

## Cc1c(Nc2nc3ccc(F)cc3s2)nnc2c1CCCN2c1ccc(-c2cnn(CC34CC5(C)CC(C)(C3)CC(OCCN3CCCC3)(C5)C4)c2C)c(C(=O)O)n1 [P65, 3-[1-[[3,5-dimethyl-7-(2-pyrrolidin-1-ylethoxy)-1-adamantyl]methyl]-5-methyl-pyrazol-4-yl]-6-[3-[(6-fluoro-1,3-benzothiazol-2-yl)amino]-4-methyl-6,7-dihydro-5H-pyrido[2,3-c]pyridazin-8-yl]pyridine-2-carboxylic acid]
[1]
  pIC50: 9.00
[2]
  pIC50: 8.92
[3]
  pIC50: 8.96

## Cc1c(Nc2nc3ccccc3s2)nnc2c1CCCN2c1ccc(-c2cnn(CC34CC5(C)CC(C)(CC(CCCN(C)C)(C5)C3)C4)c2C)c(C(=O)O)n1 [P66, 6-[3-(1,3-benzothiazol-2-ylamino)-4-methyl-6,7-dihydro-5H-pyrido[2,3-c]pyridazin-8-yl]-3-[1-[[3-[3-(dimethylamino)propyl]-5,7-dimethyl-1-adamantyl]methyl]-5-methyl-pyrazol-4-yl]pyridine-2-carboxylic acid]
[1]
  pIC50: 9.31
[2]
  pIC50: 9.66
[3]
  pIC50: 9.45
